Assay results published in ChEMBL document CHEMBL1201862, “PubChem BioAssay data set” (2004).
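Interpolation was linear, between the two tested concentrations surrounding the appropriate level; five concentrations were tested over 48 hours in 96-well plates. Here, GI50 denotes the concentration required for 50% inhibition of growth.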 Active and inactive are the calls of the source. Cut-off read from the data, not from the text of the source: active = GI50 up to about 1.1 µM and inactive = higher.

Columns and labels:
Assay in all cases: inhibition of tumour cell growth, NCI panel, 48 h
CCRF-CEM = tested on: CCRF-CEM
DU-145 = tested on: DU-145
HCC 2998 = tested on: HCC 2998
HCT-116 = tested on: HCT-116
HOP-62 = tested on: HOP-62
LOX IMVI = tested on: LOX IMVI
Malme-3M = tested on: Malme-3M
NCI-H23 = tested on: NCI-H23
NCI-H460 = tested on: NCI-H460
NCI/ADR-RES = tested on: NCI/ADR-RES
OVCAR-3 = tested on: OVCAR-3
OVCAR-4 = tested on: OVCAR-4
OVCAR-5 = tested on: OVCAR-5
RXF 393 = tested on: RXF 393
SNB-75 = tested on: SNB-75
TK-10 = tested on: TK-10
UACC-257 = tested on: UACC-257
UACC-62 = tested on: UACC-62
UO-31 = tested on: UO-31
KM-20L2 = tested on: KM-20L2

Measured: GI50

COc1cc(-c2cc(O)c(-c3ccc4ccccc4n3)c(O)n2)cc(OC)c1OC
inactive: CCRF-CEM 10.3 µM | DU-145 44.9 µM | HCC 2998 > 60.3 µM | HCT-116 19 µM | HOP-62 53.3 µM | LOX IMVI 19.1 µM | Malme-3M 13.1 µM | NCI-H23 46.2 µM | NCI-H460 31 µM | NCI/ADR-RES 26.9 µM | OVCAR-3 12.4 µM | OVCAR-4 > 38.5 µM | OVCAR-5 > 59.6 µM | RXF 393 39.9 µM | SNB-75 17.9 µM | TK-10 69.7 µM | UACC-257 54.3 µM | UACC-62 15.2 µM | UO-31 68.7 µM

O=C1Nc2ccccc2C1(O)Cc1ccccn1 (stereo unspecified)
inactive: CCRF-CEM > 100 µM | DU-145 > 100 µM | HCC 2998 > 100 µM | HCT-116 > 100 µM | HOP-62 > 100 µM | LOX IMVI > 100 µM | Malme-3M > 100 µM | NCI-H23 > 100 µM | NCI-H460 > 100 µM | NCI/ADR-RES > 100 µM | OVCAR-3 > 100 µM | OVCAR-4 > 100 µM | OVCAR-5 > 100 µM | RXF 393 > 100 µM | SNB-75 43.1 µM | TK-10 > 100 µM | UACC-257 > 100 µM | UACC-62 > 100 µM | UO-31 > 100 µM

COc1cc2c(cc1OC)C(=O)Cc1ccc(OC)c(OC)c1CN(C)CC2
inactive: CCRF-CEM > 100 µM | HCC 2998 > 100 µM | HCT-116 > 100 µM | HOP-62 > 100 µM | KM-20L2 > 100 µM | LOX IMVI > 100 µM | Malme-3M > 100 µM | NCI-H23 > 100 µM | NCI-H460 15.6 µM | OVCAR-3 > 100 µM | OVCAR-4 > 100 µM | OVCAR-5 > 100 µM | SNB-75 > 100 µM | TK-10 > 100 µM | UACC-257 > 100 µM | UACC-62 > 100 µM | UO-31 > 100 µM

O=C1OC(CC(=O)c2ccc(Cl)cc2)C(Cl)=C1Cl (stereo unspecified)
inactive: CCRF-CEM 35.6 µM | HCC 2998 > 100 µM | HCT-116 > 100 µM | HOP-62 > 100 µM | KM-20L2 > 100 µM | Malme-3M > 100 µM | NCI-H23 > 100 µM | NCI-H460 > 100 µM | OVCAR-3 > 100 µM | OVCAR-4 > 100 µM | OVCAR-5 > 100 µM | SNB-75 > 100 µM | TK-10 > 100 µM | UACC-257 > 100 µM | UACC-62 > 100 µM | UO-31 > 100 µM

COc1nc(=O)n(COC(CO)CN2C(=O)c3ccccc3C2=O)cc1Cc1cccc(OCc2ccccc2)c1 (stereo unspecified)
inactive: CCRF-CEM 24.1 µM | HCC 2998 20.7 µM | HCT-116 29.4 µM | KM-20L2 26.2 µM | LOX IMVI 20.1 µM | NCI-H23 27.2 µM | OVCAR-3 21.9 µM | OVCAR-4 21.8 µM | SNB-75 15.5 µM | TK-10 27 µM | UACC-62 14.6 µM | UO-31 16.3 µM

NC1=NCC(CN2CCOCC2)O1 (stereo unspecified)
inactive: CCRF-CEM > 100 µM | DU-145 > 100 µM | HCC 2998 > 100 µM | HCT-116 > 100 µM | HOP-62 > 100 µM | LOX IMVI > 100 µM | Malme-3M > 100 µM | NCI-H23 > 100 µM | NCI-H460 > 100 µM | NCI/ADR-RES > 100 µM | OVCAR-3 > 100 µM | OVCAR-4 > 100 µM | OVCAR-5 > 100 µM | RXF 393 > 100 µM | SNB-75 62.2 µM | TK-10 > 100 µM | UACC-257 > 100 µM | UACC-62 > 100 µM | UO-31 > 100 µM

COc1ccc(-c2c(/C=N/OCC(=O)O)c3sc4ccccc4n3c2/C=N/OCC(=O)O)cc1
inactive: CCRF-CEM > 50 µM | DU-145 > 50 µM | HCC 2998 > 50 µM | HCT-116 > 50 µM | HOP-62 > 50 µM | LOX IMVI > 50 µM | Malme-3M > 50 µM | NCI-H23 > 50 µM | NCI-H460 > 50 µM | NCI/ADR-RES > 50 µM | OVCAR-3 > 50 µM | OVCAR-4 > 50 µM | OVCAR-5 > 50 µM | RXF 393 > 50 µM | SNB-75 > 50 µM | TK-10 > 50 µM | UACC-257 > 50 µM | UACC-62 > 50 µM | UO-31 11.9 µM

COc1ccc(/C(=N/NC(N)=O)C2(O)C(=O)Nc3ccc([N+](=O)[O-])cc32)cc1 (stereo unspecified)
inactive: CCRF-CEM 11.6 µM | HCC 2998 37.3 µM | HCT-116 14.9 µM | HOP-62 28.2 µM | KM-20L2 22.3 µM | Malme-3M > 10 µM | NCI-H23 17 µM | NCI-H460 19.3 µM | OVCAR-3 18.1 µM | OVCAR-4 13.6 µM | OVCAR-5 31.5 µM | SNB-75 20.6 µM | UACC-257 21.1 µM | UACC-62 20 µM | UO-31 20.5 µM
